# Structures can show the parent of a compound that is named as a salt.
# Columns and labels:
# [1] = test system: bovine serum albumin; experiment: Formation of fluorescent advanced glycosylation end products in albumin incubated with glucose; assay type: biochemical; details: 200 mM agent, 6 mg/mL BSA, 200 mM glucose, 37° C., two-week incubation, vs control
# Procedure: To measure the ability of certain of the agents of the present invention to inhibit the production of advanced glycosylated end products in vitro, albumin and glucose were incubated together for two weeks in the presence of several test agents. Samples were taken at regular intervals for analysis. Advanced glycosylation end products were measured as appearance of fluorescent compounds, and early glycosylation products were measured by incorporation of radiolabeled glucose into albumin. Reaction conditions were as follows. […]
# After the incubation periods, samples were treated as follows. After dialysis to remove all unbound glucose, the amount of protein present was measured with a standard dye-binding assay. The amount of glucose which became bound to the albumin, a measure of early glycosylation products, was determined by precipitating albumin with trichloroacetic acid and measuring the radioactivity of the bound glucose using scintillation counting.
# The results of this experiment are expressed graphically in FIG. 1. For each sample, incorporation of radiolabeled glucose is indicated by the solid portion of the bar, and fluorescence is indicated in the open portion of the bar. All values are expressed as per milligram of albumin. […]
# [2] = test system: normal and diabetic rats; experiment: Aorta advanced glycosylation endproduct content (specific fluorescence of collagen); assay type: in vivo, rat; details: for Advanced glycosylation products: aorta, 25 mg/kg daily i.p., 16 weeks
# Procedure: The experiment consisted of giving both normal and diabetic rats daily intraperitoneal doses of the agent aminoguanidine hydrochloride at a dose of 25 mg per kilogram of body weight, for a period of 16 weeks. […] Diabetes was induced prior to drug therapy with a single dose of streptozotocin. Control animals, both diabetic and normal, received no drug.
# Aorta samples from the same groups of animals described in Example IV above were subjected to analysis for Advanced Glycosylation Endproducts (A.G.E.) content and solubility.
# Aortas were finely minced with dissecting scissors, delipidated with 5 mL of chloroform: methanol (2:1), washed 5 times with buffer, and divided into aliquots for the following assessments of cross-linking:
# (A) Specific fluorescence of collagen after complete solubilization by proteinase k and pepsin.
# After treatment for the prescribed period, soluble material was separated from insoluble material by centrifugation (50,000× g, 1 hour), and all fractions were lyophilized and hydrolyzed in 6M HCl for determination of total hydroxyproline.
# [3] = test system: Streptozotocin-diabetic male Lewis rats; experiment: Tail tendon collagen solubility (pepsin), streptozotocin-diabetic rats; assay type: in vivo, rat; details: 9 months; for Collagen Solubility: tail tendon
# Procedure: (§1) Streptozotocin-diabetic male Lewis rats were treated for a 9-month time period with daily doses of aminoguanidine hydrochloride of 0, 6.25, 12.5, 25, and 50 mg/kg/day. After the treatment period, collagen in tail tendon fiber was subjected to solubility determination. Ten mg samples were incubated with gentle rocking for 5 hours at 4° C. in 5 ml of 0.5M acetic acid containing 1 mg pepsin. The samples were then centrifuged at 50,000× g for 1 hour, and the soluble and insoluble fraction separated by decanting. Each fraction was hydrolyzed in 6N HCl and total hydroxyproline measured.
# [4] = test system: BB/Worcester rat; experiment: Tail tendon collagen solubility (pepsin), BB/Worcester rats; assay type: in vivo; details: 6 months; for Collagen Solubility: tail tendon
# Procedure: as §1
# The effect of aminoguanidine administration on collagen cross-linking was examined in a genetically-diabetic animal model, the BB/Worcester rat. Once the animals become diabetic, daily insulin injections are essential for survival. Glucose levels are maintained at a moderate level (250-350 mg %), much lower than in the streptozotocin-diabetic animals (>500 mg %).
# Diabetic and non-diabetic controls were treated orally with aminoguanidine hydrochloride at 12.5 and 50 mg/kg/day for 6 months. Control animals were dosed with water only. Tail tendon collagen solubility was then determined by the pepsin method described in Example IX.
# [5] = test system: diabetic rats; details: cited from earlier work
smiles,measurement,setting,value
N=C(N)NN [aminoguanidine hydrochloride],formation of fluorescent compounds (advanced glycosylation end products),[1],dramatically reduced by as much as eightfold
same,Advanced glycosylation products,[2]; diabetic rats,4.5 ± 0.1 Specific fluorescence per mg hydroxyproline
same,Advanced glycosylation products,[2]; normal rats,2.8 ± 0.1 Specific fluorescence per mg hydroxyproline
same,level of fluorescent advanced glycosylation products in aortic tissue relative to untreated normal rats,[2]; treated diabetic rats vs untreated normal rats,1.3 times
same,prevention of the diabetes-induced fall in tail tendon collagen solubility,[3]; 6.25 up to 50 mg/kg/day orally,significantly prevented this change in a dose-dependent manner
same,prevention of the diabetes induced cross-linking,[3]; highest dose (50 mg/kg/day orally),80%
same,Collagen Solubility,"[3]; Diabetic, 12.5 mg/kg/day",66.7 ± 1.2%
same,Collagen Solubility,"[3]; Diabetic, 50 mg/kg/day",75.9 ± 0.4%
same,Collagen Solubility,"[3]; Normal, 50 mg/kg/day",88.2 ± 0.2%
same,prevention of the diabetes-induced fall in tail tendon collagen solubility,[4]; 12.5 and 50 mg/kg/day orally,"prevented significantly, in a dose-dependent manner"
same,Collagen Solubility,"[4]; Diabetic, 12.5 mg/kg/day orally",66.7 ± 1.2%
same,Collagen Solubility,"[4]; Diabetic, 50 mg/kg/day orally",75.9 ± 0.4%
same,Collagen Solubility,"[4]; Normal, 50 mg/kg/day orally",88.2 ± 0.2%
same,kidney glomerular basement membrane protein crosslinking,[5],diminishes kidney glomerular basement membrane protein crosslinking in diabetic rats
